# Measurements: patent publication US20030083469A1, “Allosteric control of nuclear hormone receptors” (The Salk Institute for Biological Studies, priority 1995, published 2003)
# Target: T1, GAL-RXR + RAR LBD (Homo sapiens, UniProt P10276+P19793)
# T1 construct: human RXRα LBD (Glu 203 - Thr 462); HRARα LBD (Glu 156 - PRO 462); expressed in transfected cells; host or cells: CV-1
# T1 sequence (P19793 203-462): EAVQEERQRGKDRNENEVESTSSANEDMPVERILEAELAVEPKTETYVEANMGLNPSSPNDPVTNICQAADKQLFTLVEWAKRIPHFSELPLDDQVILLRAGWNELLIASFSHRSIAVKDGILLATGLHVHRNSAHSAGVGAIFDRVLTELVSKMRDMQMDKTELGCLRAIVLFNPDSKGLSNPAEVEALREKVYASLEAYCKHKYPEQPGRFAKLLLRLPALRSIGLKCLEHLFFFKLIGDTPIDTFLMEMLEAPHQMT
# T1 sequence (P10276 156-462): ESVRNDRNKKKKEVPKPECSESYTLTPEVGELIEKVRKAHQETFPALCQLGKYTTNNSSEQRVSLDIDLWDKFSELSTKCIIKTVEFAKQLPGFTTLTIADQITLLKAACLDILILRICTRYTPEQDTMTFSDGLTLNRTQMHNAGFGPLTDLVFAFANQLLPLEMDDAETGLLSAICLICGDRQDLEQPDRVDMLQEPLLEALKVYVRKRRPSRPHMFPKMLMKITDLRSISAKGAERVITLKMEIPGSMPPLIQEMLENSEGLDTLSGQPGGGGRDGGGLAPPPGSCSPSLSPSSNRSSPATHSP
# Assay: Transient transfection analysis of GAL-RXR LBD in the presence of RAR LBD
# Type: cell-based
# Procedure: CV-1 cells were grown in Dulbecco's Modified Eagle's medium supplemented with 10% resin-charcoal stripped (Samuels et al., Endocrinology 105:80-85 (1979)) fetal bovine serum, 50 U/ml penicillin G and 50 μg/ml streptomycin sulfate (DMEM-FBS) at 37° C. in 5% CO2. One day prior to transfection, cells were plated to 50-80% confluence using phenol-red free DMEM-FBS. Cells were transfected by lipofection using N-{2-(2,3)-dioleoyloxy)propyl-N,N,N-trimethyl ammonium methyl sulfate} according to the manufacturer's instructions (DOTAP, Boehringer Mannheim). […]. All points were performed in triplicate in each experiment and varied by less than 10%. Each experiment was repeated three or more times with similar results.
# Thus, a chimeric protein was constructed containing the yeast GAL4 DBD linked to the RXR LBD (GAL-RXR). The ability of this RXR-chimera to respond to LG69 was initially examined in the presence of truncated receptors containing the LBDs of T3R or RAR. Thus, transient transfection analysis of GAL-RXR LBD was carried out in the presence of T3R, RAR or VDR LBDs. Reporter constructs contained 4 copies of the UASG cloned upstream of the TK-LUC reporter. […] Normalized luciferase activity was determined and plotted as reporter activity (see FIG. 3).
# […]. Normalized luciferase activity was determined and plotted as fold-activation relative to untreated cells.
smiles,measurement,setting,value
"CC=C(c1ccc(C(=O)O)cc1)c1cc2c(cc1C)C(C)(C)CCC2(C)C [LG69, 4-{1-(3,5,5,8,8-pentamethyl-5,6,7,8-tetrahydro-2-napthalenyl)-1-propenyl}benzoic acid]",transcriptional activity with Am580+LG69 over that seen with AM580 alone,"GAL-RXR + RAR LBD, 50 nM AM580+100 nM LG69",increased transcriptional activity
same,fold-responsiveness of GAL-RXR to LG69,"unliganded RAR LBD present, 100 nM LG69",strongly suppressed
